Assay [1] addresses T1, Type-1 angiotensin II receptor (Bos taurus, UniProt P25104).
T1 sequence (P25104 whole entry): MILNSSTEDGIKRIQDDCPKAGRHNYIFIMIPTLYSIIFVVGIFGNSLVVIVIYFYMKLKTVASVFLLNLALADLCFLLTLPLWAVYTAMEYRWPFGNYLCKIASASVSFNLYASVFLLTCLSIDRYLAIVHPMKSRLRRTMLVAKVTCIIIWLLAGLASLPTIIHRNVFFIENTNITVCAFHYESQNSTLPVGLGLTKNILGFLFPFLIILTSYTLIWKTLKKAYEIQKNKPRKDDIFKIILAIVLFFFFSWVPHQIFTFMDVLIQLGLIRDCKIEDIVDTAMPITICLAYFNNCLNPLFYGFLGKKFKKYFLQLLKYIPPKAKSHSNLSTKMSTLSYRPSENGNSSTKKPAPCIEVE
The assay can be described thus: In vitro Angiotensin II receptor antagonism in bovine adrenal cortex tissue. The format is functional, tissue-based.

A further assay addresses T2, Angiotensin II receptor (Rattus norvegicus, UniProt P29089+P25095+P35351).
T2 sequence (P29089 whole entry): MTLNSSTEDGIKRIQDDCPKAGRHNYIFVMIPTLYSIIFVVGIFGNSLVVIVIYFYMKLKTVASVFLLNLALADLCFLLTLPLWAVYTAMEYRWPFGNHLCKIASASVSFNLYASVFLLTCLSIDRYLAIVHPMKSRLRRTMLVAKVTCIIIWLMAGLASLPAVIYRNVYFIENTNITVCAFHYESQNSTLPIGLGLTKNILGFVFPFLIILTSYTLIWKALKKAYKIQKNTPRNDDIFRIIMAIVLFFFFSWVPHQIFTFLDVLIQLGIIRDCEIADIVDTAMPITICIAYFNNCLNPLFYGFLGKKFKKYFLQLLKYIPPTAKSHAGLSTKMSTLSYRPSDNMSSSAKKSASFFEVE
T2 sequence (P25095 whole entry): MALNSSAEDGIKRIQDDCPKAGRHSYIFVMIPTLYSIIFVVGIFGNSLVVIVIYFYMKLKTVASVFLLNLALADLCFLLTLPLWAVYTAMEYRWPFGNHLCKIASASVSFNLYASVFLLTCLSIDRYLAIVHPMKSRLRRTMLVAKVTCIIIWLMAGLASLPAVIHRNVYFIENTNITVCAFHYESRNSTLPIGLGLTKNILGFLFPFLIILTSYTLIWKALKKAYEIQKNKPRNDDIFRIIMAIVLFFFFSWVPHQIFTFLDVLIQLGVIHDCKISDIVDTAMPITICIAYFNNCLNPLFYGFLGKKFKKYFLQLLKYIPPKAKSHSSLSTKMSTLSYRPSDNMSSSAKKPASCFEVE
T2 sequence (P35351 whole entry): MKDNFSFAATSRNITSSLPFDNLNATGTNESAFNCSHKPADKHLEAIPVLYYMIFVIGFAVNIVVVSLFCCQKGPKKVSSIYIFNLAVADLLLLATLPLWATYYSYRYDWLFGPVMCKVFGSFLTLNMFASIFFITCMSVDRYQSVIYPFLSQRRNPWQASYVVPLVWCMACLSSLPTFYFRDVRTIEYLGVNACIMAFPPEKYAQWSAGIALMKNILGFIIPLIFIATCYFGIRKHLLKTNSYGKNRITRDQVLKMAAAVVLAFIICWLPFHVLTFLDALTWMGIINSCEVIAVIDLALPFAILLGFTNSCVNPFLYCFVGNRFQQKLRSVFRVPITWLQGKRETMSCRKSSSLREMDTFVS
The assay can be described thus: In vitro Angiotensin II receptor antagonist activity in rat adrenal cortex tissue. Type of assay: functional, tissue-based.

The subject of assay [2] is Rattus norvegicus. The assay can be described thus: Percent inhibition of AII vasopressor response in SHR at 5 mg/kg of oral dose after 5 hr in hypertensive rats. The format is functional.
The test system of assay [3] is Rattus norvegicus. The assay can be described thus: In vivo change in mean arterial blood pressure in conscious renin-dependent […] hypertensive rats at 1 mg/kg, p.o. after 30 min. The note with it: route oral. Type of assay: functional.
The subject of assay [4] is Rattus norvegicus. Kind of assay: In vivo change in mean arterial blood pressure in conscious renin-dependent […] hypertensive rats at 1 mg/kg, p.o. after 2 hr. The format is functional. The note with it: route oral.

A word on the IC50: it is the midpoint of a concentration-inhibition curve. A higher IC50 goes with weaker potency in that assay. `CCCCc1nc2ccc([C@]3(C(=O)N(C)C)C[C@H]4CCCN4O3)cc2c(=O)n1Cc1ccc(-c2ccccc2-c2nnn[nH]2)cc1`: in assay [1], the IC50 stood at 57 nM.
Regarding `CCCCc1nc2ccc(-c3cccs3)cc2c(=O)n1Cc1ccc(-c2ccccc2-c2nn[nH]n2)cc1`, at Angiotensin II receptor, the concentration for half-maximal inhibition (IC50) is listed as 44 nM. In other words, the double-digit nanomolar range.
Regarding `CCCCc1nc2ccc([C@]3(c4ccccc4)C[C@H]4CCCN4O3)cc2c(=O)n1Cc1ccc(-c2ccccc2-c2nnn[nH]2)cc1`, half-maximal inhibition in assay [1] (IC50) was put at 56 nM. In other words, the double-digit nanomolar range.
On Angiotensin II receptor, `CCCCc1nc2ccc(-c3ccco3)cc2c(=O)n1Cc1ccc(-c2ccccc2-c2nn[nH]n2)cc1` registered an IC50 of 47 nM.
Turning to `CCCCc1nc2ccc(C3(C)CC(C(=O)OCC)=NO3)cc2c(=O)n1Cc1ccc(-c2ccccc2-c2nn[nH]n2)cc1` (stereo not given), in assay [1], the midpoint of inhibition, the IC50, lay at 140 nM.
On the same count and under the same terms, next, `CCCCc1nc2ccc([C@@]3(CC)C[C@H]4CCCN4O3)cc2c(=O)n1Cc1ccc(-c2ccccc2-c2nnn[nH]2)cc1`: 58 nM; `CCCCc1nc2ccc(C3CC(C(=O)O)=NO3)cc2c(=O)n1Cc1ccc(-c2ccccc2-c2nn[nH]n2)cc1` (stereo not given): 500 nM; `CCCCc1nc2ccc([C@]3(C(=O)O)C[C@H]4CCCN4O3)cc2c(=O)n1Cc1ccc(-c2ccccc2-c2nnn[nH]2)cc1`: 46 nM.
As to `CCCCc1nc2ccc(C3C=CCO3)cc2c(=O)n1Cc1ccc(-c2ccccc2-c2nn[nH]n2)cc1` (stereo not given), on Angiotensin II receptor, the IC50 turned out to be 5 nM.
Take `CCCCc1nc2ccc(C3CCCO3)cc2c(=O)n1Cc1ccc(-c2ccccc2-c2nn[nH]n2)cc1` (stereo not given): on Angiotensin II receptor, the IC50 is 11 nM.
In assay [1], `CCCCc1nc2ccc(C3(C(=O)N4CCCCC4)C[C@H]4CCCN4O3)cc2c(=O)n1Cc1ccc(-c2ccccc2-c2nn[nH]n2)cc1` (stereo not given in full) returned an IC50 of 61 nM. That is a double-digit nanomolar value.
On the same count and under the same terms, next, `CCCCc1nc2ccc([C@]3(C)C[C@H]4CCC(C)(C)N4O3)cc2c(=O)n1Cc1ccc(-c2ccccc2-c2nnn[nH]2)cc1`: 65 nM.
The term inhibition in vivo denotes the relative decrease from the control value, in per cent. Low values mean little suppression, high ones strong suppression. In turn, `CCCCc1nc(Cl)c(CO)n1Cc1ccc(-c2ccccc2-c2nnn[nH]2)cc1` [LOSARTAN] yielded an IC50 in assay [1] of 330 nM. This compound also had an inhibition in vivo at 5 mg/kg in the assay with Rattus norvegicus [2] of 50%.
In turn, `CCCCc1nc2ccc(C3CC(c4cc(C)co4)=NO3)cc2c(=O)n1Cc1ccc(-c2ccccc2-c2nnn[nH]2)cc1` (stereo not given) returned a half-maximal inhibitory concentration (IC50) in assay [1] of 180 nM.
Compound `CCCCc1nc2ccc([C@@]3(C)C[C@H]4CCC(C)(C)N4O3)cc2c(=O)n1Cc1ccc(-c2ccccc2-c2nnn[nH]2)cc1` displayed an IC50 in assay [1] of 70 nM.
Regarding `CCCCc1nc2ccc([C@@]3(C)C[C@H]4CCCN4O3)cc2c(=O)n1Cc1ccc(-c2ccccc2-c2nn[nH]n2)cc1`, the IC50 in assay [1] came to 55 nM.
`CCCCc1nc2ccc([C@@H]3C[C@H]4CCCN4O3)cc2c(=O)n1Cc1ccc(-c2ccccc2-c2nnn[nH]2)cc1` displayed a half-maximal inhibitory concentration (IC50) in assay [1] of 32 nM.
The same measure, in the same setting: the figure for `CCCCc1nc2ccc([C@@H]3C[C@H]4CCC(C)(C)N4O3)cc2c(=O)n1Cc1ccc(-c2ccccc2-c2nnn[nH]2)cc1` is 39 nM; for `CCCCc1nc2ccc([C@]3(CO)C[C@H]4CCCN4O3)cc2c(=O)n1Cc1ccc(-c2ccccc2-c2nnn[nH]2)cc1` it is 35 nM.
`CCCCc1nc2ccc(C3CC(c4cc(C)cs4)=NO3)cc2c(=O)n1Cc1ccc(-c2ccccc2-c2nnn[nH]2)cc1` (stereo not given): in assay [1], the concentration for half-maximal inhibition (IC50) amounted to 410 nM.
The same measure, in the same setting: the figure for `CCCCc1nc2ccc([C@H]3ON4CCCC4C3C(=O)OCC)cc2c(=O)n1Cc1ccc(-c2ccccc2-c2nn[nH]n2)cc1` (stereo not given in full) is 69 nM; for `CCCCc1nc2ccc([C@@H]3C[C@@]4(C)CCCCN4O3)cc2c(=O)n1Cc1ccc(-c2ccccc2-c2nn[nH]n2)cc1` it is 65 nM.
On the same count and under the same terms, next, `CCCCc1nc2ccc([C@]3(C(=O)OC)C[C@H]4CCCN4O3)cc2c(=O)n1Cc1ccc(-c2ccccc2-c2nnn[nH]2)cc1`: 79 nM; `CCCCc1nc2ccc(C(C)(C)OC)cc2c(=O)n1Cc1ccc(-c2ccccc2-c2nn[nH]n2)cc1` [CL-329167]: 31 nM; `CCCCc1nc2ccc([C@]3(CC)C[C@H]4CCCN4O3)cc2c(=O)n1Cc1ccc(-c2ccccc2-c2nnn[nH]2)cc1`: 83 nM.
Take `CCCCc1nc2ccc([C@]3(C)C[C@H]4CCCN4O3)cc2c(=O)n1Cc1ccc(-c2ccccc2-c2nn[nH]n2)cc1`: the results for the Activity in the assay on Rattus norvegicus [3] and in the assay with Rattus norvegicus [4] were -3 mmHg and -5.5 mmHg, respectively. Besides, half-maximal inhibition in assay [1] (IC50) was put at 27 nM.
Turning to `CCCCc1nc2ccc(C3(C(=O)N4CCCC4)C[C@H]4CCCN4O3)cc2c(=O)n1Cc1ccc(-c2ccccc2-c2nnn[nH]2)cc1` (stereo not given in full), in assay [1], the IC50 worked out at 69 nM. This counts as double-digit nanomolar.

The values are drawn from ChEMBL document CHEMBL1127932, “6-isoxazolinyl and isoxazolidinyl substituted quinazolinones as angiotensin II receptor antagonists” (Bioorg Med Chem Lett, 1994).
